From patent US8759098B2, “Method for cloning pluripotent stem cells” (Boston Biomedical Research Institute, Inc., priority 2009, dated 2014)

What was measured:
Format in all cases: cell-based, mouse
[1] = test system: SACK-responsive, Pdx1-positive Panstra-25 pancreatic stem cells; experiment: Gene-free iPSC reprogramming on STO feeders, colony phenotypes, Panstra-25; conditions: Panstra-25; hiFBS, 1 mM Xn
Description: (§1) Each tested SACK-derived cell strain was cultured on STO cell feeder monolayers in control medium with 10% DFBS, dialyzed fetal bovine serum (DFBS) or either of two commercial media for culture of murine embryonic stem cells (ESCs) and for the culture of reprogrammed cells such as iPSCs. Each medium condition was evaluated with or without supplementation with 1 mM xanthine (Xn). P/S denotes routine use of the antibiotics penicillin and streptomycin.
(§2) The method is an original pharmacological procedure for producing pluripotent stem cells. Cell strains derived in xanthine (Xn)-supplemented medium, by the method of suppression of asymmetric cell kinetics (SACK), were cultured in commercial media specified for the culture and/or production of pluripotent stem cells such as embryonic stem cells and iPSCs. Approximately 150,000 cells were plated on confluent STO cell feeders (i.e., mouse embryonic fibroblasts pre-treated with mitomycin C) in 10-cm culture dishes. In 2 weeks, iPSC-like cell colonies were detected.
(§3) To establish clonal strains, single colonies were picked, cultured in individual wells, and expanded for further study and cryo-preservation. A high fraction of the derived cell clones have morphological and biochemical properties indicative of iPSC cells.
(§4) Tissue-specific stem cells (e.g., Panstra-25 and Panstra-12 mouse pancreatic stem cell strains in the instant example) were cultured on mitomycin C-treated STO cell monolayers in commercial embryonic stem cell medium supplemented with the purine salvage base xanthine at 1 mM concentration (FIG. 4). Within 2-3 weeks of culture under otherwise standard conditions, cell colonies with embryonic stem cell-like morphology developed (FIG. 7B). These colonies were removed by mild trypsin treatment, transferred to individual cell culture wells prepared with STO cell feeders, and expanded in the respective embryonic stem cell culture medium supplemented with 1 mM xanthine (FIG. 5). The expanded cell clones expressed alkaline phosphatase (FIG. 8), a biochemical biomarker for the pluripotent phenotype of embryonic stem cells and iPSC cells. […] Xn supplementation increased the average production efficiency by as much as 3-fold (Table 6).

[2] = test system: SACK-responsive, Pdx1-negative Panstra-12 pancreatic stem cells; experiment: Gene-free iPSC reprogramming on STO feeders, colony phenotypes, Panstra-12; conditions: for Estimated gene-free iPSC colony formation efficiency, ES, AP+ (iPSC state) / Estimated gene-free iPSC colony formation efficiency, ES, AP− / Estimated gene-free iPSC colony formation efficiency, Fl, AP+ / Estimated gene-free iPSC colony formation efficiency, Fl, AP− / Phenotype ES, AP+ (iPSC state) of individual cell clones following expansion, clones/total / Phenotype ES, AP+ (iPSC state) of individual cell clones following expansion, percent / Phenotype ES, AP− of individual cell clones following expansion, clones/total / Phenotype ES, AP− of individual cell clones following expansion, percent / Phenotype Fl, AP+ of individual cell clones following expansion, clones/total / Phenotype Fl, AP+ of individual cell clones following expansion, percent / Phenotype Fl, AP− of individual cell clones following expansion, clones/total / Phenotype Fl, AP− of individual cell clones following expansion, percent: Panstra-12, 1 mM Xn
Description: as §1, §2, §3, §4

Panstra 11 [3] = experiment: Gene-free iPSC reprogramming, Panstra 11; conditions: Panstra 11, SACK agent Xn
Description: as §1, §2
(§5) Tissue-specific stem cells (e.g., Panstra-25 and Panstra-12 mouse pancreatic stem cell strains in the instant example) were cultured on mitomycin C-treated STO cell monolayers in commercial embryonic stem cell medium supplemented with the purine salvage base xanthine at 1 mM concentration (FIG. 4). […]

Panstra 56 [4] = experiment: Gene-free iPSC reprogramming, Panstra 56; conditions: Panstra 56, SACK agent Xn
Description: as §1, §2, §5

Panstra 11 [5] = experiment: SACK responsiveness (cell kinetics, colony formation), Panstra 11; set-up: key: SACK-responsive (R); non-responsive (NR); conditions: Panstra 11, SACK agent Xn
Description: (§6) Cells were plated at colony forming density in SACK-free culture medium (Control) or culture medium supplemented to 1 mM concentration with the SACK agents xanthosine (Xs), xanthine (Xn), or hypoxanthine (Hx).
(§7) The terms “SACK-R” and “Xn-responsive” are used interchangeably. Xn-responsive cells are not transformed cells.
(§8) In the example, the differentiated cells are adult mouse pancreatic islet cells and Xn is the chemical compound used to suppress asymmetric cell kinetics (SACK). […] These Xn-treated and Xn-responsive cells then proceeded to express alkaline phosphatase, a known enzyme marker that is highly expressed in undifferentiated cells such as primordial germ cells (FIG. 8), after culture in media that support the proliferation of mouse pluripotent stem cells. Under these conditions, these Xn-expanded and Xn-responsive cells also multiply to form colonies that take on a clonal mouse embryonic stem cell-like morphology in culture, resembling a compact clump of round tiny cells, the clump having a smooth and well defined edge (FIG. 7B).
(§9) The SACK-derived clonal pancreatic cell strains have properties of either beta-cell precursors (Pdx1+) or more primitive pancreatic cells (Pdx1−). In the colony formation analyses, three hundred (300) cells were plated in replicate (n=3) 30-mm diameter culture dishes. […] Ten days later, plates were stained with crystal violet and colonies counted. […]

Panstra 12 = experiment: SACK responsiveness (cell kinetics, colony formation), Panstra 12; set-up: key: SACK-responsive (R); non-responsive (NR); conditions: Panstra 12, SACK agent Xn
From the text: as §7, §8
(§10) The SACK-derived clonal pancreatic cell strains have properties of either beta-cell precursors (Pdx1+) or more primitive pancreatic cells (Pdx1−). In the colony formation analyses, three hundred (300) cells were plated in replicate (n=3) 30-mm diameter culture dishes. Twenty-four hours later, the culture medium was replaced with the medium supplemented with SACK agents as indicated. Ten days later, plates were stained with crystal violet and colonies counted. Xs, xanthosine; Xn, xanthine; Hx hypoxanthine.

Panstra 25 = experiment: SACK responsiveness (cell kinetics, colony formation), Panstra 25; set-up: key: SACK-responsive (R); non-responsive (NR); conditions: Panstra 25, SACK agent Xn
Description: as §6, §7, §8, §9

Panstra 56 [6] = experiment: SACK responsiveness (cell kinetics, colony formation), Panstra 56; set-up: key: SACK-responsive (R); non-responsive (NR); conditions: Panstra 56, SACK agent Xn
From the text: as §7, §8, §10

SACK-R strain Panstra-25 = experiment: Insulin expression by immunofluorescence, pancreatic differentiation; conditions: routine culture conditions with Xn supplementation, three days
From the text: Upper panels, routine culture conditions with Xn supplementation; lower panels, Xn-free differentiation conditions. DAPI, detection of corresponding cell nuclei. The expression of insulin was detected by immunofluorescence (data not shown). In order to study the formation of islet-like clusters after induction of differentiation in Xn-free medium, pancreatic beta-cell differentiation was induced by plating the cells on a poly-D-lysine substrate and changing growth medium to medium containing 1% dialysed fetal bovine serum, 20 ng/mL epidermal growth factor (EGF), 10 mM nicotinamide, and 25 mM glucose. […] Insulin was expressed in cells differentiated in Xn-free conditions after three days. The expression of insulin was detected by immunofluorescence (data not shown). DAPI, detection of corresponding cell nuclei. […] These properties of self-renewal in an undifferentiated state and the ability to produce differentiated pancreatic cells define the SACK-R strains as pancreatic tissue stem cells.

`O=c1[nH]c(=O)c2[nH]cnc2[nH]1` [Xn, xanthine] was tested, and the “Phenotype Fl, AP− of individual cell clones following expansion, percent” value (“Phenotype Fl, AP− … percent” for short) [1] was 26%, the “iPSC (gene-free iPSC reprogramming)” value ([2]; Panstra 12, SACK agent Xn) was “Yes” and the “Estimated gene-free iPSC colony formation efficiency, ES, AP+ (iPSC state)” value ([2]; DFBS) was 0.000%. For the same molecule, the “Estimated gene-free iPSC colony formation efficiency, ES, AP−” value ([2]; DFBS) was 0.047%, the “Estimated gene-free iPSC colony formation efficiency, Fl, AP+” value ([2]; DFBS) was 0.027% and the “Estimated gene-free iPSC colony formation efficiency, Fl, AP−” value ([2]; DFBS) was 0.080%. For the same molecule, the “Phenotype ES, AP+ (iPSC state) of individual cell clones following expansion, clones/total” value (“Phenotype ES, AP+ (iPSC state) … clones/total” below) ([2]; DFBS) was 0/23, the “Phenotype ES, AP+ (iPSC state) of individual cell clones following expansion, percent” value (shortened to “Phenotype ES, AP+ (iPSC state) … percent”) ([2]; DFBS) was 0% and the “Phenotype ES, AP− of individual cell clones following expansion, clones/total” value (“Phenotype ES, AP− … clones/total” below) ([2]; DFBS) was 7/23. For the same molecule, the “Phenotype ES, AP− of individual cell clones following expansion, percent” value (from here on “Phenotype ES, AP− … percent”) ([2]; DFBS) was 31%, the “Phenotype Fl, AP+ of individual cell clones following expansion, clones/total” value (from here on “Phenotype Fl, AP+ … clones/total”) ([2]; DFBS) was 4/23 and the “Phenotype Fl, AP+ of individual cell clones following expansion, percent” value (shortened to “Phenotype Fl, AP+ … percent”) ([2]; DFBS) was 17%. For the same molecule, the “Phenotype Fl, AP− of individual cell clones following expansion, clones/total” value (shortened to “Phenotype Fl, AP− … clones/total”) ([2]; DFBS) was 12/23, the “Phenotype Fl, AP− … percent” value ([2]; DFBS) was 52% and the “Estimated gene-free iPSC colony formation efficiency, ES, AP+ (iPSC state)” value ([2]; KOSR) was 0.067%. The “Estimated gene-free iPSC colony formation efficiency, ES, AP−” value ([2]; KOSR) was 0.033%, the “Estimated gene-free iPSC colony formation efficiency, Fl, AP+” value ([2]; KOSR) was 0.007% and the “Estimated gene-free iPSC colony formation efficiency, Fl, AP−” value ([2]; KOSR) was 0.007%. The “Phenotype ES, AP+ (iPSC state) … clones/total” value ([2]; KOSR) was 10/17, the “Phenotype ES, AP+ (iPSC state) … percent” value ([2]; KOSR) was 59% and the “Phenotype ES, AP− … clones/total” value ([2]; KOSR) was 5/17. For the same molecule, the “Phenotype ES, AP− … percent” value ([2]; KOSR) was 29%, the “Phenotype Fl, AP+ … clones/total” value ([2]; KOSR) was 1/17 and the “Phenotype Fl, AP+ … percent” value ([2]; KOSR) was 6%. For the same molecule, the “Phenotype Fl, AP− … clones/total” value ([2]; KOSR) was 1/17, the “Phenotype Fl, AP− … percent” value ([2]; KOSR) was 6% and the “Estimated gene-free iPSC colony formation efficiency, ES, AP+ (iPSC state)” value ([2]; hiFBS) was 0.020%. The “Estimated gene-free iPSC colony formation efficiency, ES, AP−” value ([2]; hiFBS) was 0.033%, the “Estimated gene-free iPSC colony formation efficiency, Fl, AP+” value ([2]; hiFBS) was 0.000% and the “Estimated gene-free iPSC colony formation efficiency, Fl, AP−” value ([2]; hiFBS) was 0.073%. For the same molecule, the “Phenotype ES, AP+ (iPSC state) … clones/total” value ([2]; hiFBS) was 3/19, the “Phenotype ES, AP+ (iPSC state) … percent” value ([2]; hiFBS) was 16% and the “Phenotype ES, AP− … clones/total” value ([2]; hiFBS) was 5/19. The “Phenotype ES, AP− … percent” value ([2]; hiFBS) was 26%, the “Phenotype Fl, AP+ … clones/total” value ([2]; hiFBS) was 0/19 and the “Phenotype Fl, AP+ … percent” value ([2]; hiFBS) was 0%. The “Phenotype Fl, AP− … clones/total” value ([2]; hiFBS) was 11/19, the “Phenotype Fl, AP− … percent” value ([2]; hiFBS) was 58% and the “higher rate of iPSC-like colony production, average” value ([2]; Pdx1− strain supplemented with Xn, p=0.024) was 3 fold. The “increase of the conversion rate to iPSC” value ([2]; Xn in the iPSC media at 1 mM, strain not given) was “approximately 3 fold”, the “increase of the average production efficiency of iPSC-like cell clones” value ([2]; Xn supplementation (Table 6)) was ≤ 3 fold and the “iPSC (gene-free iPSC reprogramming)” value (Panstra 11 [3]) was “No”. For the same molecule, the “iPSC (gene-free iPSC reprogramming)” value (Panstra 56 [4]) was “No”, the “SACK Type” value (Panstra 11 [5]) was “NR” and the “SACK Type” value (Panstra 12) was “R”. The “SACK Type” value (Panstra 25) was “R”, the “SACK Type” value (Panstra 56 [6]) was “NR” and the “expression of insulin (immunofluorescence)” value (SACK-R strain Panstra-25) was “no expressed insulin was detectable”.
